Source: PubChem BioAssay (NCI)
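GI50 is the concentration that inhibits growth by half. TGI is the concentration that stops growth completely.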

Key:
Test in all cases: NCI tumour cell line growth inhibition, 384-well format
NCI-H226 lung = system: NCI-H226 lung
SR leukemia = system: SR leukemia
HOP-92 NSCLC = system: HOP-92 NSCLC
OVCAR-3 ovarian = system: OVCAR-3 ovarian
A549 NSCLC = system: A549 NSCLC
A498 renal = system: A498 renal
HCT-116 colon = system: HCT-116 colon
SN12C renal = system: SN12C renal
MALME-3M melanoma = system: MALME-3M melanoma
OVCAR-4 ovarian = system: OVCAR-4 ovarian
SK-MEL-5 melanoma = system: SK-MEL-5 melanoma
NCI-H322M lung = system: NCI-H322M lung
CAKI-1 renal = system: CAKI-1 renal
MDA-MB-435 melanoma = system: MDA-MB-435 melanoma
PC-3 prostate = system: PC-3 prostate
OVCAR-5 ovarian = system: OVCAR-5 ovarian
SNB-19 CNS = system: SNB-19 CNS
CCRF-CEM leukemia = system: CCRF-CEM leukemia
NCI-H23 lung = system: NCI-H23 lung
SF-539 CNS = system: SF-539 CNS
U251 glioblastoma = system: U251 glioblastoma
SK-MEL-2 melanoma = system: SK-MEL-2 melanoma
NCI-H522 lung = system: NCI-H522 lung
RXF 393 renal = system: RXF 393 renal
HCT-15 colon = system: HCT-15 colon
786-0 renal = system: 786-0 renal
K-562 leukemia = system: K-562 leukemia
HOP-62 NSCLC = system: HOP-62 NSCLC
BT-549 breast = system: BT-549 breast
UACC-257 melanoma = system: UACC-257 melanoma
SW-620 colon = system: SW-620 colon
ACHN renal = system: ACHN renal
RPMI-8226 leukemia = system: RPMI-8226 leukemia
SNB-75 CNS = system: SNB-75 CNS
SF-295 CNS = system: SF-295 CNS
M14 melanoma = system: M14 melanoma
HL-60(TB) leukemia = system: HL-60(TB) leukemia
NCI-H460 NSCLC = system: NCI-H460 NSCLC
DU-145 prostate = system: DU-145 prostate
SK-OV-3 ovarian = system: SK-OV-3 ovarian
COLO 205 colon = system: COLO 205 colon
HS 578T breast = system: HS 578T breast
UACC-62 melanoma = system: UACC-62 melanoma
OVCAR-8 ovarian = system: OVCAR-8 ovarian
TK-10 renal = system: TK-10 renal
KM12 colon = system: KM12 colon
HT29 colon = system: HT29 colon

## C=CC(=O)Nc1cc(C)ccc1Nc1nc(Nc2cc(OC)ncc2C)ncc1C(F)(F)F
NCI-H226 lung
  GI50: 228 nM
  TGI: 1810 nM
SR leukemia
  GI50: 1790 nM
  TGI: 3180 nM
HOP-92 NSCLC
  GI50: 282 nM
  TGI: 700 nM
OVCAR-3 ovarian
  GI50: 447 nM
  TGI: 3030 nM
A549 NSCLC
  GI50: 569 nM
  TGI: 2050 nM
A498 renal
  GI50: 479 nM
  TGI: 1900 nM
HCT-116 colon
  GI50: 206 nM
  TGI: 562 nM
SN12C renal
  GI50: 321 nM
  TGI: 2180 nM
MALME-3M melanoma
  GI50: 16.1 nM
  TGI: 65.8 nM
OVCAR-4 ovarian
  GI50: 394 nM
  TGI: 7500 nM
SK-MEL-5 melanoma
  GI50: 147 nM
  TGI: 1970 nM
NCI-H322M lung
  GI50: 570 nM
  TGI: 3890 nM
CAKI-1 renal
  GI50: 401 nM
  TGI: 1440 nM
MDA-MB-435 melanoma
  GI50: 253 nM
  TGI: 1510 nM
PC-3 prostate
  GI50: 1970 nM
  TGI: 99700 nM
OVCAR-5 ovarian
  GI50: 279 nM
  TGI: 1500 nM
SNB-19 CNS
  GI50: 786 nM
  TGI: 3430 nM
CCRF-CEM leukemia
  GI50: 1710 nM
  TGI: 3400 nM
NCI-H23 lung
  GI50: 192 nM
  TGI: 661 nM
SF-539 CNS
  GI50: 362 nM
  TGI: 1550 nM
U251 glioblastoma
  GI50: 951 nM
  TGI: 2560 nM
SK-MEL-2 melanoma
  GI50: 113 nM
  TGI: 271 nM
NCI-H522 lung
  GI50: 310 nM
  TGI: 1480 nM
RXF 393 renal
  GI50: 215 nM
  TGI: 766 nM
HCT-15 colon
  GI50: 857 nM
  TGI: 9300 nM
786-0 renal
  GI50: 853 nM
  TGI: > 100000 nM
K-562 leukemia
  GI50: 1520 nM
  TGI: > 100000 nM
HOP-62 NSCLC
  GI50: 725 nM
  TGI: 2620 nM
BT-549 breast
  GI50: 300 nM
  TGI: 1020 nM
UACC-257 melanoma
  GI50: 117 nM
  TGI: 390 nM
SW-620 colon
  GI50: 405 nM
  TGI: 1680 nM
ACHN renal
  GI50: 374 nM
  TGI: 1820 nM
RPMI-8226 leukemia
  GI50: 232 nM
  TGI: 1170 nM
SNB-75 CNS
  GI50: 336 nM
  TGI: 1290 nM
SF-295 CNS
  GI50: 3610 nM
  TGI: > 100000 nM
M14 melanoma
  GI50: 35.5 nM
  TGI: 194 nM
HL-60(TB) leukemia
  GI50: 136 nM
  TGI: 1070 nM
NCI-H460 NSCLC
  GI50: 698 nM
  TGI: 2720 nM
DU-145 prostate
  GI50: 865 nM
  TGI: 3600 nM
SK-OV-3 ovarian
  GI50: 621 nM
  TGI: 4210 nM
COLO 205 colon
  GI50: 75.3 nM
  TGI: 1120 nM
HS 578T breast
  GI50: 429 nM
  TGI: 1850 nM
UACC-62 melanoma
  GI50: 59.9 nM
  TGI: 381 nM
OVCAR-8 ovarian
  GI50: 1120 nM
  TGI: 4190 nM
TK-10 renal
  GI50: 328 nM
  TGI: 884 nM
KM12 colon
  GI50: 444 nM
  TGI: > 100000 nM
HT29 colon
  GI50: 340 nM
  TGI: 1520 nM
